“Also recorded” adds a separate entry of the source.
Key:
[1] = test system: glucocorticoid receptors (GR) in hepatocytes; assay: Binding to glucocorticoid receptor in hepatocytes (3H-dexamethasone displacement); settings: 24° C., 1 h, compared with corticosterone (B)
Method: Hepatocytes were incubated at 24° C. for 1 h in the presence of ^3H-dexamethasone and increasing concentrations of dexamethasone in the concentration range 0.632 nM to 200 μM. Cells were harvested and the radioactivity bound was determined by β-scintillation counting. *=p<0.001 versus B. The results are shown in FIG. 1.

glucocorticoid receptors = molecular target: T1, glucocorticoid receptors (Rattus norvegicus, UniProt P06536); settings: Carlstedt-Duke et al 1977; cited from earlier work
T1 sequence (P06536 1-795): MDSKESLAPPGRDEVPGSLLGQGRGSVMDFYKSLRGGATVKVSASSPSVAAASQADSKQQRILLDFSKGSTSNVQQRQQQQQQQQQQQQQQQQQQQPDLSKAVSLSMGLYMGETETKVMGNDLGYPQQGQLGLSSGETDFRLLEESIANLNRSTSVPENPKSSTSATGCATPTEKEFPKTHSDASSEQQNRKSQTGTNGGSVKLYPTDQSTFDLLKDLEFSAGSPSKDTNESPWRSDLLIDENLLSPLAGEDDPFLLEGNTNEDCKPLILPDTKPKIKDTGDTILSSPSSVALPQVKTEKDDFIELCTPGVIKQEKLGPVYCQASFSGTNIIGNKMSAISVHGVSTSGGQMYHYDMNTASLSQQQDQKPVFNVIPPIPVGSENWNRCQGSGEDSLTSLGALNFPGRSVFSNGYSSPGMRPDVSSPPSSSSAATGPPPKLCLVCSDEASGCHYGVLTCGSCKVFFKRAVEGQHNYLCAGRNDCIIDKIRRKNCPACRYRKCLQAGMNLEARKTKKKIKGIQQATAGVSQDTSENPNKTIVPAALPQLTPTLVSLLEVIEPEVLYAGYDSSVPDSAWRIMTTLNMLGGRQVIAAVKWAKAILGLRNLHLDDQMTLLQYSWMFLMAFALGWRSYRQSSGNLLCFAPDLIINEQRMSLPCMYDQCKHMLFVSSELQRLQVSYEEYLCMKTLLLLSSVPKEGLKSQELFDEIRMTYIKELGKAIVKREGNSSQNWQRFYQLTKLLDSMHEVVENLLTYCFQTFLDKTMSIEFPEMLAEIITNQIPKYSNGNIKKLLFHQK

[2] = test system: gluconeogenic enzymes in liver; settings: Golf et al 1984; cited from earlier work
[3] = test system: neuronal long-term potentiation; settings: Dubrovsky et al 1987; cited from earlier work
[4] = molecular target: T2, glucocorticoid receptor (GR) (Homo sapiens, UniProt P04150); assay: GR activation reporter: Hela cells transfected with GR and MMTV-luciferase; format: cell-based; settings: for Induction of luciferase (GR activation), Example 5 / luciferase induction in response to activation of GR / luciferase induction in cells without GR: 1 micromol/l; for luciferase induction in response to activation of GR: Hela cells transfected with GR and MMTV-luciferase; for luciferase induction in cells without GR: Hela cells transfected with luciferase but without GR
T2 construct: expressed in transfected cells; host or cells: HeLa cells
T2 sequence (P04150 1-777): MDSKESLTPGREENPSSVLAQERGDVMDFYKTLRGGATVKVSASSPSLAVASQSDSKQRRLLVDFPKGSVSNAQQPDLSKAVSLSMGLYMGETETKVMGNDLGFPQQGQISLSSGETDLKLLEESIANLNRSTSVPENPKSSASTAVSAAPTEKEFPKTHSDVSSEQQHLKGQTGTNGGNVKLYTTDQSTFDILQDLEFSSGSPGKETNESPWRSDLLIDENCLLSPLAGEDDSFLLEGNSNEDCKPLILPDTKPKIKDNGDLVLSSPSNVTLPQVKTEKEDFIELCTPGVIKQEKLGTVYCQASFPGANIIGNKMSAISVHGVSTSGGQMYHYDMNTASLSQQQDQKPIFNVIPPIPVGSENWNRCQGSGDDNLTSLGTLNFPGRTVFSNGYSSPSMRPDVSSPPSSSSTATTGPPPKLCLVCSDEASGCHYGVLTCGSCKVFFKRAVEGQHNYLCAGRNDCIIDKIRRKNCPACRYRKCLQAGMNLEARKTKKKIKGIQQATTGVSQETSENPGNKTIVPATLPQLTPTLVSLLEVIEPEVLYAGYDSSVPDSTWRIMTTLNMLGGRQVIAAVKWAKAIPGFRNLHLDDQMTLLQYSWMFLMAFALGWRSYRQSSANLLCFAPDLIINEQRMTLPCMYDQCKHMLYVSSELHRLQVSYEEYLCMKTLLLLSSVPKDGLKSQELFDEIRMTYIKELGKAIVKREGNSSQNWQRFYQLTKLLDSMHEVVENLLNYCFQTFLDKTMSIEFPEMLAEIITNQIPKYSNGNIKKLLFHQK
Method: Comparative potency Fold induction of luciferase activity as a consequence of GR activation in Hela cells transfected with GR and luciferase under the control of a GRE and MMTV promoter (n=3). All steroids at 1 μM. Dex=dexamethasone; B=corticosterone; αDHB=5α-dihydrocorticosterone; αTHB=5α-tetrahydrocorticosterone; βDHB=5β-dihydrocorticosterone; βTHB=5β-tetrahydrocorticosterone. *indicates p<0.05 and ***p<0.001 in comparison with corticosterone. 5α-reduced metabolites of corticosterone activate glucocorticoid receptors with similar potency as corticosterone (B). […] 5β-reduced metabolites have no effect.
Dose response. Fold induction of luciferase activity as a consequence of GR activation in Hela cells transfected with GR and luciferase under the control of a GRE and MMTV promoter (n=3).
Corticosterone (B) and 5α-tetrahydrocorticosterone (5αTHB) or vehicle (LTR) were added to the medium (with final steroid concentrations of 1 micromol/l) of Hela cells transfected with GR and a plasmid expressing luciferase under the control of an MMTV glucocorticoid responsive promoter (grey bars) and in transfected cells with luciferase but without GR (open bars).
HeLa cells were transfected with glucocorticoid receptor (GR) and MMTV-luciferase (LTR) as a glucocorticoid sensitive reporter. Induction of luciferase was measured in response to addition of 5α-tetrahydrocorticosterone (5α-THB) with and without corticosterone (B). Data (mean±SEM, n=6) show responses to individual steroids, then the additive responses predicted (Sum) and observed (Actual).
HeLa cells were transfected with glucocorticoid receptor (GR) and MMTV-luciferase (LTR) as a glucocorticoid sensitive reporter. Induction of luciferase was measured in response to addition of 1 micromol/l concentrations of corticosterone (B), cortisol (F), 5alpha-dihydrocortisol (DHF5a) and 5alpha-tetrahydrocortisol (THF5a).

[5] = test system: tyrosine amino transferase (TAT) mRNA in H4iiE cells; assay: Induction of tyrosine amino transferase (TAT) mRNA in H4iiE cells (Northern blot); format: cell-based; settings: 1 micromol/l; for Induction of TAT mRNA: Northern blot corrected for U1; for Induction of TAT mRNA in presence of RU486: plus GR antagonist RU486
Method: Induction of the glucocorticoid-responsive enzyme tyrosine amino transferase (TAT) mRNA was measured by Northern blot in H4iiE cells incubated in the presence of corticosterone (B, 1 micromol/l) or 5α-tetrahydrocorticosterone (5α-THB, 1 micromol/l) or vehicle.

ACTH levels = assay: ACTH suppression in adrenalectomised rats; format: in vivo, Male lean Zucker rats; settings: 5 mg/kg intraperitoneal, 2 hours after injection, immunoassay
Method: Male lean Zucker rats aged ˜9 weeks were adrenalectomised. 3 weeks later, samples were obtained by tail tipping before and for 3 hours after intraperitoneal injection of either vehicle, corticosterone (B, 5 mg/kg body weight) or 5alpha-tetrahydrocorticosterone (THB5a, 5 mg/kg body weight). […] This is consistent with activation of glucocorticoid receptors at sites responsible for feedback suppression of the hypothalamic-pituitary-adrenal axis (principally pituitary, hypothalamus and hippocampus).

mouse aortic ring = assay: Angiogenesis bioassay, aortic ring embedded in matrigel; format: cell-based; settings: 7 days; for number of new vessels forming (angiogenesis): B 600 nmol/l, 5alpha-THB 1000 nmol/l; for angiogenesis effect in presence of RU486: plus GR antagonist RU486
Method: In this bioassay, the number of new vessels forming is measured over 7 days in a mouse aortic ring embedded in matrigel.

[6] = HeLa cells, GR and MMTV-luciferase
[7] = Hela cells transfected with GR and GRE/MMTV-luciferase, n=3

C[C@]12CCC(=O)C[C@@H]1CC[C@@H]1[C@@H]2[C@@H](O)C[C@]2(C)[C@@H](C(=O)CO)CC[C@@H]12 [5α-dihydrocorticosterone]
binding affinity for glucocorticoid receptors (GR) [1]: lower binding affinities
binding to glucocorticoid receptors, judged by displacement of bound dexamethasone (glucocorticoid receptors): does not bind to glucocorticoid receptors
activity of gluconeogenic enzymes in liver [2]: lowering activity of gluconeogenic enzymes in liver
effect on neuronal long-term potentiation [3]: inhibition of neuronal long-term potentiation

C[C@]12CCC(=O)C[C@@H]1CC[C@@H]1[C@@H]2[C@@H](O)C[C@@]2(C)[C@H]1CC[C@]2(O)C(=O)CO [5alpha-dihydrocortisol]
Induction of luciferase (GR activation), Example 5 [4, 6]: induced significant GR activation

C[C@]12CC[C@@H](O)C[C@@H]1CC[C@@H]1[C@@H]2[C@@H](O)C[C@@]2(C)[C@H]1CC[C@]2(O)C(=O)CO [5alpha-tetrahydrocortisol]
Induction of luciferase (GR activation), Example 5 [4, 6]: induced significant GR activation

C[C@]12CCC(=O)C=C1CC[C@@H]1[C@@H]2[C@@H](O)C[C@@]2(C)[C@H]1CC[C@]2(O)C(=O)CO [cortisol, reference compound]
Induction of luciferase (GR activation), Example 5 [4, 6]: induced significant GR activation

C[C@]12CC[C@@H](O)C[C@@H]1CC[C@@H]1[C@@H]2[C@@H](O)C[C@]2(C)[C@@H](C(=O)CO)CC[C@@H]12 [5α-tetrahydrocorticosterone]
binding affinity for glucocorticoid receptors (GR) [1]: equivalent binding affinity
agonist type at GR (observed versus predicted additive luciferase response) ([4]; HeLa cells, GR and MMTV-luciferase, with and without corticosterone, n=6): full rather than partial agonist of GR
Fold induction of luciferase activity as a consequence of GR activation (comparative potency) ([4]; Hela cells transfected with GR and GRE/MMTV-luciferase, all steroids at 1 μM, n=3): more potent than 5α-dihydrocorticosterone
Fold induction of luciferase activity as a consequence of GR activation (dose response) [4, 7]: activate a glucocorticoid receptor-dependent response; also recorded: lesser effect than corticosterone
luciferase induction in response to activation of GR [4]: activated GR
luciferase induction in cells without GR [4]: abolished in the absence of transfected receptor
Induction of TAT mRNA [5]: induced TAT mRNA transcription
Induction of TAT mRNA in presence of RU486 [5]: blocked
ACTH levels compared with vehicle (ACTH levels): significantly suppressed ACTH levels
number of new vessels forming (angiogenesis) (mouse aortic ring): prevents angiogenesis
angiogenesis effect in presence of RU486 (mouse aortic ring): also blocked by RU486

C[C@]12C[C@H](O)[C@H]3[C@@H](CCC4=CC(=O)CC[C@@]43C)[C@@H]1CC[C@@H]2C(=O)CO [corticosterone, reference compound]
Induction of luciferase (GR activation), Example 5 [4, 6]: induced significant GR activation
Fold induction of luciferase activity as a consequence of GR activation (dose response) [4, 7]: activate a glucocorticoid receptor-dependent response
luciferase induction in response to activation of GR [4]: activated GR
luciferase induction in cells without GR [4]: abolished in the absence of transfected receptor
Induction of TAT mRNA [5]: induced TAT mRNA transcription
Induction of TAT mRNA in presence of RU486 [5]: blocked
ACTH levels compared with vehicle (ACTH levels): significantly suppressed ACTH levels
number of new vessels forming (angiogenesis) (mouse aortic ring): inhibits angiogenesis
angiogenesis effect in presence of RU486 (mouse aortic ring): blocked
